In patent publication US6673832B1, “Methods for identifying compounds for treating pain” (priority 1998, dated 2004):
Where two headings read alike, the source gives them in different places. Square brackets hold non-standard residues; d marks the D form. Peptide text beside a SMILES is read from it.

Legend:
[1] = test system: ET-1-induced hindpaw flinching; assay: Blockade of ET-1-induced hindpaw flinching; format: in vivo, rat; settings: for effect on ET-1 induced hindpaw flinching: antagonist 3 mM epineurial, 20, 10 and 0 min prior to ET-1 400 μM; for significance of difference from ET-1 alone in hindpaw flinching (FIG. 3): antagonist 3 mM, 20, 10 and 0 min prior to ET-1 400 μM
From the text: (§1) Surgical Procedures. Adult male Sprague Dawley rats (175-225 g) were anesthetized with an intermediate-onset, short-acting volatile anesthetic (Sevaflurane, Abbott Laboratories, North Chicago, Ill.). After shaving of the hair over the left or right flank and incision of the skin, blunt dissection was made through the biceps femoris, the sciatic nerve exposed by careful microdissection away from the surrounding connective tissue, and gently elevated by insertion of a small curved hemostat placed beneath it. Following drug administration, as described below, the biceps femoris was closed with a single silk suture, and the skin closed with surgical staples.
(§2) Drug administration. The following drugs were applied epineurially: 1) 40-800 μM endothelin-1 (ET-1) (synthetic, 98% pure peptide content, American Peptides Co., Sunnyvale, Calif.); 2) the selective endothelin-A receptor antagonist, BQ-123 (American Peptides Co.; Sunnyvale, Calif.) at 3 mM; 3) the selective endothelin-B receptor antagonist, BQ-788 (American Peptides Co.; Sunnyvale, Calif.) at 3 mM; and 400 μM epinephrine (American Regent Laboratories, Inc., Shirley, N.Y.).
(§3) All drugs were dissolved in phosphate buffered saline (PBS, pH=7.4), and applied in 40 μl volumes to the epineurial surface of the exposed sciatic nerve (n=10 rats/condition). The total time for each drug application was 3-4 min. BQ-123 and BQ-788 were applied in 3 stages: 20 min prior to, 10 min prior to and 30 sec before ET-1 application. PBS was administered to control animals. Excess drug or PBS solution was absorbed by cotton gauze placed at the edge of the exposed nerve.
Morphine was administered systemically immediately before anesthesia (10 mg/kg, ip). Naloxone was administered systemically 20 min after the completion of ET-1 application (2 mg/kg, ip).
(§4) Behavioral evaluation. […] Behavioral measurements were then performed with animals freely moving on a flat surface enclosed by an inverted large Plexiglas cage. The total number of ipsilateral and contralateral spontaneous hindpaw flinches (operationally defined as complete lifting of the hindpaw off the testing surface) were counted for consecutive 5 minute periods for a total 60 minute observation period. The total duration of hindpaw lifting and time spent exploring were also recorded.

CCI rats = assay: Thermal hyperalgesia (hindpaw withdrawal latency) after sciatic nerve CCI; format: in vivo, rat
Procedure: (§5) CCI surgery. The sciatic nerve of a rat was exposed after blunt dissection of the biceps femoris. Four chromic gut ligatures (4-0) were placed around a […] section of sciatic nerve in the mid-thigh region. The ligatures were applied so that they constricted the diameter of the nerve just enough to impede circulation through the superficial vasculature (as visualized under an operating microscope at 40×). Sham-operated rats received an identical exposure of the left sciatic nerve without CCI. A coding system blinded the investigators to the nature of the surgery performed on individual rats.
Dexamethasone inhibits CCI-induced pain sensitivity. […] Thermal hyperalgesia was defined as a reduction in the latency to hindpaw withdrawal during a thermal stimulus applied to the plantar surface. […] Presumably, chemotactic signals overwhelmed the effects of DEX by 10 days to account for differences from baseline and between hindpaws at this timepoint (FIG. 8B).

circulating leukocytes = settings: for Mean number of leukocytes: cyclophosphamide 100 mg/kg
From the text: Complete blood counts were serially determined on all animals receiving treatments.

normal rats = settings: cyclophosphamide treatment, FIGS. 11A and B
Procedure: For these experiments only, different groups of treated animals were tested (alternating fashion) on each test day to limit the amount of blood drawn.

[2] = test system: sciatic nerve in rats with a chronic constriction injury; assay: Leukocytic profiles in sciatic nerve sections after CCI; format: in vivo, rat
Procedure: as §5
Histology. To compare the extent and type of cellular inflammation around the peripheral nerve due to CCI between DEX- and saline-treated rats, the ligated sciatic nerve was processed for histological analysis. At 3, 5, 7, and 10 days post-CCI, animals were euthanized with 100 mg/kg intraperitoneal sodium pentobarbital, and then transcardially perfused first with 50 ml of cold 0.9% NaCl, 1 ml/g body weight of 4% paraformaldehyde in 0.01 M phosphate buffered saline, pH 7.4 (PBS). A 2-3 cm section of sciatic nerve, or a 1 cm section of L5 and L6 spinal nerves, which included material at the ligation site, as well as that just proximal and distal to ligation, was placed in 0.01 M PBS, 4% paraformaldehyde to post-fix for 2 hours. Tissue was then embedded in paraffin, cut in 10-30 μm sections on a vibratome, and placed on glass slides. Slides were deparaffinized and then hydrated in distilled water prior to staining in freshly filtered Harris' hematoxylin for 6-15 min. After washing in running tap water for 2-5 min, sections were differentiated in 1% acid alcohol, washed briefly in tap water, and then placed in weak ammonia water until sections are bright blue. The sections were then washed thoroughly in running tap water, transferred to 80% ethanol, and then counterstained in eosin-phloxine solution prior to dehydration and mounting with Permount.
Quantitation of leukocytes in nerve sections. To detect leukocytes in injured peripheral nerve, both cellular and […] were used. To be included in the leukocyte cell count, leukocytes had to 1) have a nucleus which was clearly visible and characteristic of an infiltrating macrophage (bean-shaped nucleus), neutrophil (polymorphic nucleus) or lymphocyte (dense nucleus that fills the cytoplasm); 2) have a “foamy” macrophage appearance typical of a myelin-ingesting phagocytes; and 3) be present within the endoneurial space. Cells present within vascular spaces or containing nuclei that could not be clearly differentiated from activated Schwann cells, fibroblasts or endothelial cells were not counted.

rat sciatic nerve = assay: Epineurial application of drug to rat sciatic nerve, spontaneous hindpaw flinching; format: in vivo
From the text: as §1, §2, §3
In experiments involving repeated administration of ET-1, animals were re-anesthetized 75-80 min after surgery (time point after which no further hindpaw flinching was observed, as described below), and 400 μM ET-1 was applied in the same volume, as described above. Behavioral evaluation was performed, as described below, for an additional 60 min.
as §4
Data Analysis. The peak frequency of hindpaw flinching, effects at 10 min post-drug administration, and area-under-the-curve (without approximation) from 0-60 min were all used to describe response-concentration functions.

E1A cells = assay: Microfluorometry (Fura-2) of intracellular calcium in E1A cells; format: cell-based, rat
Procedure: Microfluorometry in E1A cells. E1A cells (retrovirally-transformed rat dorsal root ganglion cells) were grown as a monolayer on poly-L-lysine coated coverslips in Dulbecco's modified eagle media supplemented with 10% fetal bovine serum at 37° C. in a humified atmosphere (5% CO2−95% air). Cells were used 48-72 hours after plating, at a confluence of 75 to 90%. The concentration of intracellular calcium was determined by dual excitation microfluorometry, using the calcium sensitive dye Fura-2 (Grynkiewicz, et.al., J. Biol. Chem. 260: 3440-3450, 1985). E1A cells were washed once with D-PBS (with Ca^++) and then incubated for 30 min at room temperature in D-PBS (with Ca^++) containing 7.5 μM Fura-2/AM and 0.00125% (wt/vol) pluronic-DMSO. The cells were then washed twice in D-PBS (with Ca^++) and incubated for an additional 30 minutes to allow cleavage of the Fura-2/AM to the active Fura-2.
Experiments were conducted with the coverslips in a perfusion chamber of 0.4 ml, with a constant flow rate of 4 ml/min. Each coverslip was equilibrated in D-PBS for 2 min prior to beginning an experiment. […]
Microfluorometry was performed with an inverted epifluoroscence microscope connected to a light source which provided two alternating wavelengths (Photon Technology International Deltascan). […] Background fluorescence was subtracted from each trial.

[3] = naloxone 2 mg/kg ip, 20 min after ET-1

`CC(C)C[C@@H]1NC(=O)[C@@H](C(C)C)NC(=O)[C@@H]2CCCN2C(=O)[C@@H](CC(=O)O)NC(=O)[C@@H](Cc2c[nH]c3ccccc23)NC1=O` [BQ-123] (cyclo(L[dW][dD]P[dV])) was tested. Which “effect on ET-1 induced hindpaw flinching” value [1] did it give?
The value was “completely blocked”.

What about the “significance of difference from ET-1 alone in hindpaw flinching (FIG. 3)” value [1] of the same compound?
The value was “significant at every time point after 5 min”.

With `CCCC[C@@H](NC(=O)[C@@H](Cc1cn(C(=O)OC)c2ccccc12)NC(=O)[C@H](CC(C)(C)C)NC(=O)N1[C@H](C)CCC[C@@H]1C)C(=O)O` [BQ-788] as the compound, how does the “effect on ET-1 induced hindpaw flinching” value [1] read?
The value was “reduced hindpaw flinching significantly only at the 40 and 45 min timepoints”.

And the “significance of difference from ET-1 alone in hindpaw flinching (FIG. 3)” value [1]?
The value was “significant at 45 and 50 min”.

With `O=P1(N(CCCl)CCCl)NCCCO1` (centres unmarked) [Cyclophosphamide, cyclophosphamide] as the compound, how does the “effect on hyperalgesia response in CCI-treated rats” value (CCI rats; CYCLO 100 mg/kg alternate days×3 prior to CCI, until leukocyte counts returned toward normal 10 days post-surgery) read?
Its value is “blocked the hyperalgesia response”.

And the “effect on circulating leukocyte numbers” value (circulating leukocytes; 100 mg/kg on alternate days×3 days, pre-operatively)?
Its value is “markedly reduced”.

And the “Mean number of leukocytes” value (circulating leukocytes; 1 day)?
The value was 0.4 ± 0.1 10^3/ml.

And the “Mean number of leukocytes” value (circulating leukocytes; 3 days)?
The value was 1.0 ± 0.3 10^3/ml.

And the “Mean number of leukocytes” value (circulating leukocytes; 5 days)?
Its value is 0.5 ± 0.4 10^3/ml.

And the “Mean number of leukocytes” value (circulating leukocytes; 8 days)?
The value was 4.6 ± .6 10^3/ml.

What about the “Mean number of leukocytes” value (circulating leukocytes; 10 days) of the same compound?
Its value is 7.3 ± 1.8 10^3/ml.

What about the “Mean number of leukocytes” value (circulating leukocytes; Baseline) of the same compound?
The value was 9.2 ± 0.7 10^3/ml.

And the “Total white blood cell counts” value (circulating leukocytes; CYCLO-treated CCI rats, normal rats approximately 9×10^3)?
The value was less than 1000 µL⁻¹.

And the “analgesic effect with respect to thermal pain stimulation in normal animals” value (normal rats)?
Its value is “no analgesic effects”.

Which “period post-CCI with differences from baseline and contralateral hindpaw eliminated” value (CCI rats; DEX 1.5 mg/kg i.p. daily) does the source give for `C[C@@H]1C[C@H]2[C@@H]3CCC4=CC(=O)C=C[C@]4(C)[C@@]3(F)[C@@H](O)C[C@]2(C)[C@@]1(O)C(=O)CO` [DEX, Dexamethasone] here?
Its value is 3 to 7 days.

And the “Number of leukocytic profiles in sciatic nerve” value (from here on “Number of leukocytic profiles”) ([2]; 3 days post-CCI, six high-power fields (0.238 mm^2), mean ± S.D.)?
Its value is 4.2 ± 0.92.

What about the “Number of leukocytic profiles” value ([2]; 5 days post-CCI, six high-power fields, n = 1) of the same compound?
Its value is 12.8.

And the “Number of leukocytic profiles” value ([2]; 7 days post-CCI, six high-power fields, mean ± S.D.)?
The value was 23.3 ± 26.9.

And the “Number of leukocytic profiles” value ([2]; 10 days post-CCI, six high-power fields, mean ± S.D.)?
The value was 25.7 ± .9.

What does the source list for `C=CCN1CC[C@]23c4c5ccc(O)c4O[C@H]2C(=O)CC[C@@]3(O)[C@H]1C5` [Naloxone]?
duration of reversal of the effect of morphine [1, 3]: approximately 10 min; reversal of the effect of morphine on ET-1-induced flinching [1, 3]: rapidly reversed the effect of morphine

With `CNC[C@H](O)c1ccc(O)c(O)c1` [epinephrine] as the compound, how does the “hindpaw flinching after epinephrine applied to sciatic nerve” value (rat sciatic nerve; 400 μM, 60 min observation period) read?
The value was “no evidence of hindpaw flinching”.

For `CN1CC[C@]23c4c5ccc(O)c4O[C@H]2[C@@H](O)C=C[C@H]3[C@H]1C5` [morphine], which “effect on flinching induced by ET-1” value ([1]; morphine 10 mg/kg ip immediately before anesthesia, ET-1 400 μM) is on record?
The value was “completely blocked”.

With endothelin-1 [ET-1] as the compound, how does the “time of peak of flinching behavior and postural changes” value (rat sciatic nerve; 400 μM ET-1) read?
The value was no more than 30 min.

What about the “repetitive, spontaneous hindpaw flinching” value (rat sciatic nerve; 400 μM ET-1, 40 μl epineurial, 10-60 min post-administration, vs PBS) of the same compound?
Its value is “increased”.

What about the “effect at high concentration on hindpaw flinching” value (rat sciatic nerve; 800 μM) of the same compound?
The value was “apparent inhibitory effect”.

And the “concentration giving maximum frequency of hindpaw flinching” value (rat sciatic nerve; 40-800 μM tested)?
The value was 400 µM.

What about the EC50 (rat sciatic nerve; 10 minutes post ET-1 administration, FIG. 4B, read-out: concentration of half-maximal effect on hindpaw flinching) of the same compound?
Its EC50 is 300 µM.

And the “hindpaw flinching and postural changes after application onto or into muscles surrounding sciatic nerve” value (rat sciatic nerve; same concentration of ET-1, muscle not nerve)?
The value was “neither increased hindpaw flinching nor postural changes”.

And the “hindpaw flinching after second (repeat) treatment” value (rat sciatic nerve; second 400 μM ET-1, 15-20 min after first 60 min testing period)?
Its value is “did not produce hindpaw flinching that was significantly different from controls”.

What about the “intracellular Ca++ level reached after ET-1” value (E1A cells; 400 μl pulse of 13.5 μM ET-1, resting level 50-100 nM) of the same compound?
The value was roughly 500 nM.

And the “Fura-2 fluorescence during ET-1 administration” value (E1A cells; E1A cells, FIG. 7)?
Its value is “large, rapid, and transient increase”.
